Laboratory results taken from ChEMBL document CHEMBL1201862, “PubChem BioAssay data set” (2004).
Calls of active or inactive are those of the source.

How the values were obtained:
[1] = tested on: Streptococcus sp. 'group A'; assay: Streptococcus pyogenes SK(-)GAS viability under kanamycin – luminescence, BacTiterGlo, confirmation, counter-screen for streptokinase expression inhibitor project, dose response (AID 1900); format: functional, organism-based
[2] = tested on: BJ; assay: BJ-TERT fibroblast viability loss – cell-based, RAS-independent, luminescence, dose response (AID 1933); format: functional; details: Homo sapiens
[3] = molecular target: Beta-galactosidase (Escherichia coli, UniProt Q8VNN2); assay: PubChem AID 485352; format: functional
[4] = molecular target: T1, Streptokinase A (Streptococcus pyogenes serotype M1, UniProt P10520); assay: viability-normalized secreted streptokinase activity reduction – plasminogen activation absorbance, OD405, dose response (AID 1914); format: functional, Streptococcus pyogenes M1 GAS;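 also: secreted streptokinase activity via plasminogen activation per viability signal from cell pellet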
T1 sequence (P10520 whole entry): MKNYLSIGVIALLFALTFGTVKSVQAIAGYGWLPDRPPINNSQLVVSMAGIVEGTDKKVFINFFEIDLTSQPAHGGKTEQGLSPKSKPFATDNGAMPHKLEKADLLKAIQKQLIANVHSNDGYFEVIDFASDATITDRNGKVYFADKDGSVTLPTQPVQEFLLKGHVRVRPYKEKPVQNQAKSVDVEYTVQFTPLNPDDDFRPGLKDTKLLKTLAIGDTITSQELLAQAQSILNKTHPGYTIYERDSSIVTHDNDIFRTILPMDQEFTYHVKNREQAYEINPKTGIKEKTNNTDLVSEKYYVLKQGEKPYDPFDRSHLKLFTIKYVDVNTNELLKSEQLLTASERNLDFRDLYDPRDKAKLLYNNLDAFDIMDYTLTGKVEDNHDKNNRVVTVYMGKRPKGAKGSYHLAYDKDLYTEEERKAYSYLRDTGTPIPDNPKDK

[5] = tested on: BJ; assay: cells; format: functional, cell-based; details: Homo sapiens
[6] = molecular target: T2, Type-1 angiotensin II receptor (Homo sapiens, UniProt P30556); assay: antagonism of angiotensin II type 1 receptor – cell-based, uHTS hits, selectivity assay for APJ receptor antagonist project, dose response (AID 463214); format: functional;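 also: antagonist potency against angiotensin II stimulated AT1 response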
T2 sequence (P30556 whole entry): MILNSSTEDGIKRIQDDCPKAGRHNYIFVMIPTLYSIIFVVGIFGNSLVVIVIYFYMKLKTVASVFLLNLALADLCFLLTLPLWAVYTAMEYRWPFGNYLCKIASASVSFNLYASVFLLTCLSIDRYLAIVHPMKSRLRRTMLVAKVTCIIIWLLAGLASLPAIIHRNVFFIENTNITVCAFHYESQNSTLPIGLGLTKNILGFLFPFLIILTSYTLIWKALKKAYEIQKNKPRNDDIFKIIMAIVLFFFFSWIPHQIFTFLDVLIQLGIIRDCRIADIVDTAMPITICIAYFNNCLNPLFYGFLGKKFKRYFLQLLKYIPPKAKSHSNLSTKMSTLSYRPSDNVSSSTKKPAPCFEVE

[7] = tested on: BJ; assay: BJ-TERT-LT-ST fibroblast viability loss – cell-based, RAS-independent, luminescence, dose response (AID 1935); format: functional; details: Homo sapiens;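 also: BJ fibroblasts immortalized with TERT plus LT and ST oncogenes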
[8] = DRD fibroblast viability loss – cell-based, non-viral oncogenic, luminescence, dose response (AID 1934); format: functional; details: Homo sapiens
[9] = tested on: Streptococcus; assay: GAS UMAA2166 growth inhibition – luminescence, BacTiterGlo, counter-screen for streptokinase expression inhibitor project, dose response (AID 1915); format: functional, organism-based;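 also: potency for reduction of bacterial viability or growth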
[10] = HEK-293T viability loss after treatment – luminescence, T-cell screen hits, cytotoxicity control for TCR NF-kB inhibitor project, dose response (AID 489026); format: functional, cell-based;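 also: cells exposed to compound about 14 hours before the viability readout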
[11] = tested on: BJ; assay: growth inhibition of engineered Ras-driven BJ cells – cell-based, alamar blue fluorescence, cherrypicked samples, dose response (AID 2631); format: functional; details: Homo sapiens;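 also: confirmatory dose-response assay in RAS-dependent BJ fibroblasts engineered with TERT, LT and ST, with cytotoxicity read by fluorescence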
[12] = viability loss in HepG2 hepatoma cells – cell-based, ATP luminescence, cherry-pick, activator set 2, cytotoxicity control, dose response (AID 1053143); format: functional
[13] = molecular target: T3, Sentrin-specific protease 8 (Homo sapiens, UniProt Q96LD8); assay: inhibition of human SENP8 cleavage activity – biochemical, luminescence, SAR follow-up (AID 504501); format: functional
T3 sequence (Q96LD8 whole entry): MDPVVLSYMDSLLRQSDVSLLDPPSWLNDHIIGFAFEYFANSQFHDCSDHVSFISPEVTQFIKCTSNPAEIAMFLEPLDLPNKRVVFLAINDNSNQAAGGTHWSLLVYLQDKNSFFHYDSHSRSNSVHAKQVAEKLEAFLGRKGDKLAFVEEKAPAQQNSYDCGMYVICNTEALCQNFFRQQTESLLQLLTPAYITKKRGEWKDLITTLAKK

[14] = molecular target: T4, Caspase-3 (Homo sapiens, UniProt P42574); assay: inhibition of recombinant caspase-3 activity – biochemical, luminescence, set 2, selectivity assay for SENP protease inhibitor project, SAR follow-up (AID 588599); format: functional
T4 sequence (P42574 whole entry): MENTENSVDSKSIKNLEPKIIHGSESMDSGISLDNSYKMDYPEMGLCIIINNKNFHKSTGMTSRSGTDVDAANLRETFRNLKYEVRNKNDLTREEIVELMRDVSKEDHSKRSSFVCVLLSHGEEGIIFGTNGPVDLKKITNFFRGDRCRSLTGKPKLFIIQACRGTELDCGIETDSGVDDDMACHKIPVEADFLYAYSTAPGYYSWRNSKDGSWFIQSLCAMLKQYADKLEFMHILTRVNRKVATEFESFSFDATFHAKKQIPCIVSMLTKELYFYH

[15] = molecular target: T3, Sentrin-specific protease 8; assay: inhibition of sentrin protease 8 – biochemical, luminescence, set 2, SAR follow-up (AID 588601); format: functional
[16] = molecular target: T4, Caspase-3; assay: SAR Analysis of small molecule inhibitors of Sentrin-specific proteases (SENPs) using a Caspase-3 Selectivity assay. [Related pubchem assays (depositor defined):AID2540, AID2599, AID434973, AID489001]; format: functional
[17] = molecular target: T5, Sentrin-specific protease 6 (Homo sapiens, UniProt Q9GZR1); assay: SAR Analysis of small molecule inhibitors of Sentrin-specific protease 6 (SENP6) using a Luminescent assay. [Related pubchem assays (depositor defined):AID2582, AID2599]; format: functional
T5 sequence (Q9GZR1 whole entry): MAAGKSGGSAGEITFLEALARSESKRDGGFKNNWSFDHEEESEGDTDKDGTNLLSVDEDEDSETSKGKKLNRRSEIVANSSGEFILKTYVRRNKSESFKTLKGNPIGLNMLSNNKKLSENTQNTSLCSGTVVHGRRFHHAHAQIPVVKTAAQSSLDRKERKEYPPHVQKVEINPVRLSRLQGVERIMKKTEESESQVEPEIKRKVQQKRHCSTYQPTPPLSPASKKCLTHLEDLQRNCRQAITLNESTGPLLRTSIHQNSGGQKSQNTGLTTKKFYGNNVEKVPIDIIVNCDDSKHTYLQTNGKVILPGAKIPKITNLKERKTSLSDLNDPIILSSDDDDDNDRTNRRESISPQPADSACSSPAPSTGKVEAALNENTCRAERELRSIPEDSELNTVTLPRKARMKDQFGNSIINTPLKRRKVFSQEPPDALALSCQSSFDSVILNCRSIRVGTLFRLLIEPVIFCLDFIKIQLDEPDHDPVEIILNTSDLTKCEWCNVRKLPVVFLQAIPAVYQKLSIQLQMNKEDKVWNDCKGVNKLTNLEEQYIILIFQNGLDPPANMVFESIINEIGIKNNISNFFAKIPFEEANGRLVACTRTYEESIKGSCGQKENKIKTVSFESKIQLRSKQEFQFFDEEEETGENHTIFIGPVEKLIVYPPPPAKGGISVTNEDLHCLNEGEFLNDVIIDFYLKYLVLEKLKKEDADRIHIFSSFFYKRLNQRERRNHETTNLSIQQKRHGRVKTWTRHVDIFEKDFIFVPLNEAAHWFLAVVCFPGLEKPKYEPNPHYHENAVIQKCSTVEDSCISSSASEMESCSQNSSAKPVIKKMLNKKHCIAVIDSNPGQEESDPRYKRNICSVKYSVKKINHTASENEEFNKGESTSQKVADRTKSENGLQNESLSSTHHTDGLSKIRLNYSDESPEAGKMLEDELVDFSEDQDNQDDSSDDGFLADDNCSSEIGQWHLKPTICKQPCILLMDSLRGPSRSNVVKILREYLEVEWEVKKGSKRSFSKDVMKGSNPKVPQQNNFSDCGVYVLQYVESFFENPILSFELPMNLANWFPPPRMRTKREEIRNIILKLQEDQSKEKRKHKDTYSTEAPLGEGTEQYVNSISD

[18] = molecular target: T5, Sentrin-specific protease 6; assay: inhibition of human SENP6 catalytic domain – biochemical, luminescence, set 2, SAR follow-up (AID 588598); format: functional
[19] = molecular target: T6, Sentrin-specific protease 7 (Homo sapiens, UniProt Q9BQF6); assay: inhibition of human SENP7 cleavage activity – biochemical, luminescence, SAR follow-up (AID 504497); format: functional
T6 sequence (Q9BQF6 whole entry): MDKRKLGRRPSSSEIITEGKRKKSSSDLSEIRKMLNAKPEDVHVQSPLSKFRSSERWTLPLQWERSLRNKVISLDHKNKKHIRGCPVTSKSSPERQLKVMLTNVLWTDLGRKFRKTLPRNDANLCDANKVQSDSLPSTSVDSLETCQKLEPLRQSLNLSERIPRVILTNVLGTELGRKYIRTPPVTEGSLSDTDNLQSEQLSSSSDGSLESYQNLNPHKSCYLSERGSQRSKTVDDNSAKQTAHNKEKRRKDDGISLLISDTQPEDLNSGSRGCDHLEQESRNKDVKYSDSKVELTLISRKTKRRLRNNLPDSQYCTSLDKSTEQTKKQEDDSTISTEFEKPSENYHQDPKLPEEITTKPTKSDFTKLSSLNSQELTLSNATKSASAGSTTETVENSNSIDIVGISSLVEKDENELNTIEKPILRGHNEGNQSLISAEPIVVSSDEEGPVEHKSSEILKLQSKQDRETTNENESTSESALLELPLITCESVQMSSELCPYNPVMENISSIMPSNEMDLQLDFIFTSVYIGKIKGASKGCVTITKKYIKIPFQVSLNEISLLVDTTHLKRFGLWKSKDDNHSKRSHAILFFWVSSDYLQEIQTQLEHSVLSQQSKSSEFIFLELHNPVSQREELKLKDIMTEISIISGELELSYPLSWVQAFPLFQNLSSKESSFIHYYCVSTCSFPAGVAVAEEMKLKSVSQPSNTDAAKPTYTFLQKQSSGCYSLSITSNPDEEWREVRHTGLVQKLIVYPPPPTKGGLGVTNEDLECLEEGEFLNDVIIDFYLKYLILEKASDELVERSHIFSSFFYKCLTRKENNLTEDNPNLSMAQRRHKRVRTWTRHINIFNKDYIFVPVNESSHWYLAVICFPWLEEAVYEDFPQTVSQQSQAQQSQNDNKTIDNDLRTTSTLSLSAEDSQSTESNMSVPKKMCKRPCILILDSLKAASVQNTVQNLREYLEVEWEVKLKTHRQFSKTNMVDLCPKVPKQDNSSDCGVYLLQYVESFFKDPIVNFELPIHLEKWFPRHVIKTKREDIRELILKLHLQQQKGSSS

Sequence of Beta-galactosidase (Q8VNN2 whole entry): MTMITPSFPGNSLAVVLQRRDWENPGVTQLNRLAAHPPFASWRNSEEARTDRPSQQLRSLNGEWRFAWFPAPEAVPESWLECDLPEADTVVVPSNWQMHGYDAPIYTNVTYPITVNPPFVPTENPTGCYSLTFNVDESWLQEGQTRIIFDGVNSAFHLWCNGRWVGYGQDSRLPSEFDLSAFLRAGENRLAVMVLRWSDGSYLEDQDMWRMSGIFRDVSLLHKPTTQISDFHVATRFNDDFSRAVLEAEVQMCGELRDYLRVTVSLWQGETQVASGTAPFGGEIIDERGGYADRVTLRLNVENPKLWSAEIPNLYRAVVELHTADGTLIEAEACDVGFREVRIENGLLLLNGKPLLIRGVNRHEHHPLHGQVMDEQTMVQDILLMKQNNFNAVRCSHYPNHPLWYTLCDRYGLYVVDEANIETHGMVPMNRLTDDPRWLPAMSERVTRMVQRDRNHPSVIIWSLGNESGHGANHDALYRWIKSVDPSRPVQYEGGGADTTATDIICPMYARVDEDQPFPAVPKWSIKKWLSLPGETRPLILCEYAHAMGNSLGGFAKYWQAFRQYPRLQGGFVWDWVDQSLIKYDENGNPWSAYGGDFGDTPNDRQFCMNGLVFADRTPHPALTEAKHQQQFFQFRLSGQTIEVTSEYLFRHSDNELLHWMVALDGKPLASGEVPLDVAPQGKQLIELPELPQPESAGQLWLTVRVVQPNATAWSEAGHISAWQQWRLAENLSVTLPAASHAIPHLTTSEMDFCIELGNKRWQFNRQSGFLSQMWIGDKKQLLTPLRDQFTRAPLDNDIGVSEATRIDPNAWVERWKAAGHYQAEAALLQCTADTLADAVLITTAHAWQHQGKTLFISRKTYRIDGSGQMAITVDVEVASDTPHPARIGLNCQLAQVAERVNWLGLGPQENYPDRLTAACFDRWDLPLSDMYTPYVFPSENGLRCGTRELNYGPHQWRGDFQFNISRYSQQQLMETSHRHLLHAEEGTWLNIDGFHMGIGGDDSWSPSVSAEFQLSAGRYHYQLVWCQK

## COc1cc(/C=C/c2ccc3cccc(O)c3n2)cc(OC)c1OC
[1]
  EC50: 2.28 µM (active)
[2]
  EC50: 1.26 µM (active)
[3]
  EC50: > 40 µM (inactive)
[4]
  EC50: > 150 µM (not active)
[5]
  EC50: 47.8 µM (inconclusive)
[6]
  IC50: 6.2 µM (active)
[7]
  EC50: 1.2 µM (inconclusive)
[8]
  EC50: 1.5 µM (active)
[9]
  EC50: 15.6 µM (active)
[10]
  IC50: > 80 µM (inactive)
[11]
  EC50: 2.96 µM (inconclusive)
[12]
  AC50: 9.5 µM (active)

## COc1ccccc1OCc1nc(-c2ccccc2Cl)no1
[13]
  IC50: 4.9 µM (active)
[14]
  IC50: 3.23 µM (active)
[15]
  IC50: 2 µM (active)
[16]
  IC50: 2.9 µM (active)
[17]
  IC50: 4.7 µM (active)
[18]
  IC50: 2.08 µM (active)
[19]
  IC50: 2.1 µM (active)
